In ChEMBL document CHEMBL4308854, “Novel indole-thiazolidinone conjugates: Design, synthesis and whole-cell phenotypic evaluation as a novel class of antimicrobial agents” (Eur J Med Chem, 2018):
Converted amounts (≈) assume the structure as drawn.

Columns and labels:
NCI/ADR-RES = test: Growth inhibition of human NCI/ADR-RES cells assessed as cell growth at 10^-5 M incubated for 48 hrs by sulforhodamine B assay relative to control; format: cell-based; set-up: scale not given: the % may be the effect or the level left; details: 10 µM
Escherichia coli [1] = test: Antibacterial activity against Escherichia coli RCMB 010052 assessed as diameter of zone inhibition after 24 hrs by agar well diffusion assay; format: functional
Aspergillus fumigatus [2] = test: Antifungal activity against Aspergillus fumigatus RCMB 02568 assessed as diameter of zone inhibition after 48 hrs by agar well diffusion assay; format: functional
OVCAR-4 = test: Growth inhibition of human OVCAR4 cells assessed as cell growth at 10^-5 M incubated for 48 hrs by sulforhodamine B assay relative to control; format: cell-based; set-up: scale not given: the % may be the effect or the level left; details: ovcar-4, 48 h, 10 µM
SK-OV-3 = test: Growth inhibition of human SKOV3 cells assessed as cell growth at 10^-5 M incubated for 48 hrs by sulforhodamine B assay relative to control; format: cell-based; set-up: scale not given: the % may be the effect or the level left; details: sk-ov-3, 48 h, 10 µM
RXF 393 = test: Growth inhibition of human RXF393 cells assessed as cell growth at 10^-5 M incubated for 48 hrs by sulforhodamine B assay relative to control; format: cell-based; set-up: scale not given: the % may be the effect or the level left; details: rxf 393, 48 h, 10 µM
SNB-75 = test: Growth inhibition of human SNB75 cells assessed as cell growth at 10^-5 M incubated for 48 hrs by sulforhodamine B assay relative to control; format: cell-based; set-up: scale not given: the % may be the effect or the level left; details: snb-75, 48 h, 10 µM
SNB-19 = test: Growth inhibition of human SNB19 cells assessed as cell growth at 10^-5 M incubated for 48 hrs by sulforhodamine B assay relative to control; format: cell-based; set-up: scale not given: the % may be the effect or the level left; details: snb-19, 48 h, 10 µM
HCC 2998 = test: Growth inhibition of human HCC2998 cells assessed as cell growth at 10^-5 M incubated for 48 hrs by sulforhodamine B assay relative to control; format: cell-based; set-up: scale not given: the % may be the effect or the level left; details: hcc 2998, 48 h, 10 µM
ACHN = test: Growth inhibition of human ACHN cells assessed as cell growth at 10^-5 M incubated for 48 hrs by sulforhodamine B assay relative to control; format: cell-based; set-up: scale not given: the % may be the effect or the level left; details: 10 µM
HCT-15 = test: Growth inhibition of human HCT15 cells assessed as cell growth at 10^-5 M incubated for 48 hrs by sulforhodamine B assay relative to control; format: cell-based; set-up: scale not given: the % may be the effect or the level left; details: hct-15, 48 h, 10 µM
MDA-MB-231 = test: Growth inhibition of human MDA-MB-231 cells assessed as cell growth at 10^-5 M incubated for 48 hrs by sulforhodamine B assay relative to control; format: cell-based; set-up: scale not given: the % may be the effect or the level left; details: mda-mb-231, 48 h, 10 µM
BT-549 = test: Growth inhibition of human BT549 cells assessed as cell growth at 10^-5 M incubated for 48 hrs by sulforhodamine B assay relative to control; format: cell-based; set-up: scale not given: the % may be the effect or the level left; details: bt-549, 48 h, 10 µM
SF-268 = test: Growth inhibition of human SF268 cells assessed as cell growth at 10^-5 M incubated for 48 hrs by sulforhodamine B assay relative to control; format: cell-based; set-up: scale not given: the % may be the effect or the level left; details: sf-268, 48 h, 10 µM
HOP-92 = test: Growth inhibition of human HOP92 cells assessed as cell growth at 10^-5 M incubated for 48 hrs by sulforhodamine B assay relative to control; format: cell-based; set-up: scale not given: the % may be the effect or the level left; details: hop-92, 48 h, 10 µM
HCT-116 = test: Growth inhibition of human HCT116 cells assessed as cell growth at 10^-5 M incubated for 48 hrs by sulforhodamine B assay relative to control; format: cell-based; set-up: scale not given: the % may be the effect or the level left; details: hct-116, 48 h, 10 µM
[3] = system: Mycobacterium tuberculosis; test: Antitubercular activity against Mycobacterium tuberculosis RCMB 010126 clinical isolate after 4 days by microplate alamar blue assay; format: functional; details: for MIC: Mycobacterium tuberculosis, RCMB 010126, 96 h
A549 = test: Growth inhibition of human A549 cells assessed as cell growth at 10^-5 M incubated for 48 hrs by sulforhodamine B assay relative to control; format: cell-based; set-up: scale not given: the % may be the effect or the level left; details: a549, 48 h, 10 µM
TK-10 = test: Growth inhibition of human TK10 cells assessed as cell growth at 10^-5 M incubated for 48 hrs by sulforhodamine B assay relative to control; format: cell-based; set-up: scale not given: the % may be the effect or the level left; details: tk-10, 48 h, 10 µM
WI-38 = test: Cytotoxicity against human WI38 cells by MTT assay; format: cell-based
OVCAR-8 = test: Growth inhibition of human OVCAR8 cells assessed as cell growth at 10^-5 M incubated for 48 hrs by sulforhodamine B assay relative to control; format: cell-based; set-up: scale not given: the % may be the effect or the level left; details: ovcar-8, 48 h, 10 µM
Escherichia coli [4] = test: Potency index, ratio of ciprofloxacin MIC to compound MIC for Escherichia coli RCMB 010052; format: functional
Pseudomonas aeruginosa = test: Antibacterial activity against Pseudomonas aeruginosa RCMB 010043 assessed as diameter of zone inhibition after 24 hrs by agar well diffusion assay; format: functional
OVCAR-5 = test: Growth inhibition of human OVCAR5 cells assessed as cell growth at 10^-5 M incubated for 48 hrs by sulforhodamine B assay relative to control; format: cell-based; set-up: scale not given: the % may be the effect or the level left; details: ovcar-5, 48 h, 10 µM
K562 = test: Growth inhibition of human K562 cells assessed as cell growth at 10^-5 M incubated for 48 hrs by sulforhodamine B assay relative to control; format: cell-based; set-up: scale not given: the % may be the effect or the level left; details: k562, 48 h, 10 µM
KM12 = test: Growth inhibition of human KM12 cells assessed as cell growth at 10^-5 M incubated for 48 hrs by sulforhodamine B assay relative to control; format: cell-based; set-up: scale not given: the % may be the effect or the level left; details: km12, 48 h, 10 µM
[5] = Cytotoxicity against mouse RAW264.7 cells; format: cell-based
Candida albicans [6] = test: Antifungal activity against Candida albicans RCMB 05036 assessed as diameter of zone inhibition after 48 hrs by agar well diffusion assay; format: functional
IGROV-1 = test: Growth inhibition of human IGROV1 cells assessed as cell growth at 10^-5 M incubated for 48 hrs by sulforhodamine B assay relative to control; format: cell-based; set-up: scale not given: the % may be the effect or the level left; details: igrov-1, 48 h, 10 µM
SK-MEL-2 = test: Growth inhibition of human SK-MEL-2 cells assessed as cell growth at 10^-5 M incubated for 48 hrs by sulforhodamine B assay relative to control; format: cell-based; set-up: scale not given: the % may be the effect or the level left; details: sk-mel-2, 48 h, 10 µM
NCI-H522 = test: Growth inhibition of human NCI-H522 cells assessed as cell growth at 10^-5 M incubated for 48 hrs by sulforhodamine B assay relative to control; format: cell-based; set-up: scale not given: the % may be the effect or the level left; details: nci-h522, 48 h, 10 µM
SF-539 = test: Growth inhibition of human SF539 cells assessed as cell growth at 10^-5 M incubated for 48 hrs by sulforhodamine B assay relative to control; format: cell-based; set-up: scale not given: the % may be the effect or the level left; details: sf-539, 48 h, 10 µM
PC-3 = test: Growth inhibition of human PC3 cells assessed as cell growth at 10^-5 M incubated for 48 hrs by sulforhodamine B assay relative to control; format: cell-based; set-up: scale not given: the % may be the effect or the level left; details: pc-3, 48 h, 10 µM
Escherichia coli [7] = test: Antibacterial activity against Escherichia coli RCMB 010052 after 24 hrs by serial dilution method; format: functional; details: RCMB 010052, 24 h
Staphylococcus aureus = test: Antibacterial activity against Staphylococcus aureus RCMB 010028 after 24 hrs by serial dilution method; format: functional; details: RCMB 010028, 24 h
Aspergillus fumigatus [8] = test: Antifungal activity against Aspergillus fumigatus RCMB 02568 after 24 hrs by serial dilution method; format: functional; details: RCMB 02568, 24 h
Candida albicans [9] = test: Antifungal activity against Candida albicans RCMB 05036 after 24 hrs by serial dilution method; format: functional; details: RCMB 05036, 24 h

CC(=O)c1sc(/N=C2\NC(=O)/C(=C3/C(=O)N(C)c4ccc(Cl)cc43)S2)nc1C
Activity (NCI/ADR-RES): 99.92% | diameter of the inhibition zone (DIZ) (Escherichia coli [1]): 25.1 mm | diameter of the inhibition zone (DIZ) (Aspergillus fumigatus [2]): 22.2 mm | Activity (OVCAR-4): 94.35% | Activity (SK-OV-3): 117.19% | Activity (RXF 393): 106.08% | Activity (SNB-75): 104.77% | Activity (SNB-19): 98.6% | Activity (HCC 2998): 112.5% | Activity (ACHN): 104.32% | Activity (HCT-15): 101.97% | Activity (MDA-MB-231): 91.15% | Activity (BT-549): 94.91% | Activity (SF-268): 98.04% | Activity (HOP-92): 95.24% | Activity (HCT-116): 94.04% | inhibition (INH) [3]: 76.35% | MIC [3]: 0.39 µg/mL (≈ 0.901 µM) | Activity (A549): 105.29% | Activity (TK-10): 118.37% | IC50 (WI-38): 19.5 µg/mL (≈ 45 µM) | Activity (OVCAR-8): 117.64% | Ratio (Escherichia coli [4]): 4 | diameter of the inhibition zone (DIZ) (Pseudomonas aeruginosa): 22.2 mm | Activity (OVCAR-5): 104.59% | Activity (K562): 100.75% | Activity (KM12): 94.43% | GI50 [5]: 125 µg/mL (≈ 289 µM) | diameter of the inhibition zone (DIZ) (Candida albicans [6]): 24.1 mm | Activity (IGROV-1): 94.36% | Activity (SK-MEL-2): 99.78% | Activity (NCI-H522): 88.75% | Activity (SF-539): 94.05% | Activity (PC-3): 96.23% | MIC (Escherichia coli [7]): 0.49 µg/mL (≈ 1.13 µM) | MIC (Staphylococcus aureus): 0.98 µg/mL (≈ 2.26 µM) | MIC (Aspergillus fumigatus [8]): 0.98 µg/mL (≈ 2.26 µM) | MIC (Candida albicans [9]): 0.49 µg/mL (≈ 1.13 µM)

CCOC(=O)c1sc(/N=C2\NC(=O)/C(=C3/C(=O)N(Cc4ccccc4)c4ccc(Cl)cc43)S2)nc1C
Activity (NCI/ADR-RES): 101.26% | diameter of the inhibition zone (DIZ) (Escherichia coli [1]): 23.4 mm | diameter of the inhibition zone (DIZ) (Aspergillus fumigatus [2]): 21.3 mm | Activity (OVCAR-4): 110.06% | Activity (SK-OV-3): 103.42% | Activity (RXF 393): 105.33% | Activity (SNB-75): 90.57% | Activity (SNB-19): 103.82% | Activity (HCC 2998): 109.14% | Activity (ACHN): 110.67% | Activity (HCT-15): 100.31% | Activity (MDA-MB-231): 100.41% | Activity (BT-549): 103.71% | Activity (SF-268): 93.91% | Activity (HOP-92): 92.11% | Activity (HCT-116): 96.07% | inhibition (INH) [3]: 75.32% | MIC [3]: 0.39 µg/mL (≈ 0.724 µM) | Activity (A549): 97.17% | Activity (TK-10): 97.92% | IC50 (WI-38): 52.1 µg/mL (≈ 96.7 µM) | Activity (OVCAR-8): 103.48% | Ratio (Escherichia coli [4]): 2 | diameter of the inhibition zone (DIZ) (Pseudomonas aeruginosa): 22.3 mm | Activity (OVCAR-5): 112.65% | Activity (K562): 101.93% | Activity (KM12): 101.95% | GI50 [5]: 62.5 µg/mL (≈ 116 µM) | diameter of the inhibition zone (DIZ) (Candida albicans [6]): 21.7 mm | Activity (IGROV-1): 105.63% | Activity (SK-MEL-2): 100.66% | Activity (NCI-H522): 90.82% | Activity (SF-539): 99.4% | Activity (PC-3): 91.84% | MIC (Escherichia coli [7]): 0.98 µg/mL (≈ 1.82 µM) | MIC (Staphylococcus aureus): 0.98 µg/mL (≈ 1.82 µM) | MIC (Aspergillus fumigatus [8]): 1.95 µg/mL (≈ 3.62 µM) | MIC (Candida albicans [9]): 1.95 µg/mL (≈ 3.62 µM)
